Active and inactive are the calls of the source. No cut-off for these calls is given here.
What was measured:
[1] = target: T1, Protein cereblon/PCNA-associated factor (Homo sapiens, UniProt Q15004+Q96SW2); assay: PROTAC activity at CRBN/PCLAF in human RS4-11 cells assessed as degradation of PCLAF protein at 100 nM measured after 24 hr of compound washout by Western blotting analysis; format: cell-based
Target sequence in this assay (Q96SW2 whole entry, looked up, one chain of several): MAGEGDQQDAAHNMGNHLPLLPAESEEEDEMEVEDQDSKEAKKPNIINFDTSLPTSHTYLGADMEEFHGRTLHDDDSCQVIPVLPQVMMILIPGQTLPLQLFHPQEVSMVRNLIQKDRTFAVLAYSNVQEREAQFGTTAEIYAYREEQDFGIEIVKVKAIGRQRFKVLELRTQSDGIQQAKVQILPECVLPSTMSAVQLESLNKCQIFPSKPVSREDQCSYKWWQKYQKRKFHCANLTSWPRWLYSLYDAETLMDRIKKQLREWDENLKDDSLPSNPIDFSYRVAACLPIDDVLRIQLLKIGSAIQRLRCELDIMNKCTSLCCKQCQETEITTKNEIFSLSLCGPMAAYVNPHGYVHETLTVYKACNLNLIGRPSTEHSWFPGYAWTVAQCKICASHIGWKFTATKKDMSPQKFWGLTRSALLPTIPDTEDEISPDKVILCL

[2] = Toxicity in NOD/SCID mouse xenografted with human RS4-11 cells assessed as change in body weight at 5 mg/kg,iv qd administration for 5 consecutive days; format: organism-based; conditions: in vivo
[3] = Toxicity in NOD/SCID mouse xenografted with human RS4-11 cells assessed as change in body weight at 25 mg/kg,iv qd administration for 5 consecutive days; format: organism-based; conditions: in vivo
[4] = Oral bioavailability in Sprague-Dawley rat at 50 mg/kg measured upto 24 hrs by LC-MS/MS analysis; format: ADME, organism-based; conditions: in vivo
[5] = Toxicity in NOD/SCID mouse xenografted with human RS4-11 cells assessed as pathological change in kidney at 25 mg/kg,iv qd administration for 5 consecutive days by hematoxylin and eosin staining based microscopic analysis; format: organism-based; conditions: in vivo
[6] = target: T1, Protein cereblon/PCNA-associated factor; assay: PROTAC activity at CRBN/PCLAF in human RS4-11 cells assessed as degradation of PCLAF protein at 100 nM incubated for 12 hrs in presence of pomalidomide by Western blotting analysis; format: cell-based
Target sequence in this assay (Q96SW2 whole entry, looked up, one chain of several): as above

[7] = Toxicity in NOD/SCID mouse xenografted with human RS4-11 cells assessed as maximum tolerated dose at IV administration for 5 consecutive days; conditions: in vivo
[8] = tested on: RS4-11; assay: Induction of apoptosis in human RS4-11 cells assessed as downregulation of Bcl-2 level at 10 to 100 nM by Western blotting analysis; format: functional, cell-based; conditions: dose 10-100 nM
[9] = tested on: U-266; assay: Antiproliferative activity against human U266B1 cells assessed as cell growth inhibition incubated for 48 hrs by CCK8 colorimetric assay; format: functional, cell-based; conditions: U-266, 48 h
[10] = target: T2, PCNA-associated factor (Homo sapiens, UniProt Q15004); assay: Binding affinity to PCLAF (unknown origin) assessed as equilibrium dissociation constant by SPR assay
T2 sequence (Q15004 whole entry): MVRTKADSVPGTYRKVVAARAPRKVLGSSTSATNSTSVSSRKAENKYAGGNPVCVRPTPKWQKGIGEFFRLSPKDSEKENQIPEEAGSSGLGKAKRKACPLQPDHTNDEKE

[11] = Toxicity in NOD/SCID mouse xenografted with human RS4-11 cells assessed as adverse effect at 1 mg/kg,iv qd administration for 5 consecutive days; format: organism-based; conditions: in vivo
[12] = target: T1, Protein cereblon/PCNA-associated factor; assay: PROTAC activity at CRBN/PCLAF in human RS4-11 cells assessed as degradation of PCLAF protein at 100 nM incubated for 12 hrs in presence of SM1044 by Western blotting analysis; format: cell-based
Target sequence in this assay (Q96SW2 whole entry, looked up, one chain of several): as the sequence (Q96SW2 whole entry, looked up, one chain of several) above

[13] = Toxicity in NOD/SCID mouse xenografted with human RS4-11 cells assessed as change in body weight at 1 mg/kg,iv qd administration for 5 consecutive days; format: organism-based; conditions: in vivo
[14] = target: T1, Protein cereblon/PCNA-associated factor; assay: PROTAC activity at CRBN/PCLAF in human RS4-11 cells assessed as maximal degradation of PCLAF protein at 24 hr by Western blotting analysis; format: cell-based
Target sequence in this assay (Q96SW2 whole entry, looked up, one chain of several): as the sequence (Q96SW2 whole entry, looked up, one chain of several) above

[15] = tested on: RS4-11; assay: Antitumor activity against human RS4-11 cells xenografted in NOD/SCID mouse assessed as increase in survival day at IV administration for 5 consecutive days; format: functional
[16] = tested on: RPMI-8226; assay: Antiproliferative activity against human RPMI-8226 cells assessed as cell growth inhibition incubated for 48 hrs by CCK8 colorimetric assay; format: functional, cell-based; conditions: RPMI-8226, 48 h
[17] = target: T1, Protein cereblon/PCNA-associated factor; assay: PROTAC activity at CRBN/PCLAF in human RS4-11 cells assessed as upregulation of p21 protein at 10 to 100 nM by Western blotting analysis; format: cell-based; conditions: dose 10-100 nM
Target sequence in this assay (Q96SW2 whole entry, looked up, one chain of several): as the sequence (Q96SW2 whole entry, looked up, one chain of several) above

[18] = target: T1, Protein cereblon/PCNA-associated factor; assay: PROTAC activity at CRBN/PCLAF in human RS4-11 cells assessed as maximal degradation of PCLAF protein by Western blotting analysis relative to control; format: cell-based
Target sequence in this assay (Q96SW2 whole entry, looked up, one chain of several): as the sequence (Q96SW2 whole entry, looked up, one chain of several) above

[19] = tested on: RS4-11; assay: Induction of cell cycle arrest in human RS4-11 cells assessed as accumulation of cells at G1 phase incubated for 48 hrs by propidium iodide staining based flow cytometry analysis; format: functional
[20] = target: T1, Protein cereblon/PCNA-associated factor; assay: PROTAC activity at CRBN/PCLAF in human RS4-11 cells assessed as degradation of PCLAF protein at 4 hr by Western blotting analysis; format: cell-based
[21] = target: T1, Protein cereblon/PCNA-associated factor; assay: PROTAC activity at CRBN/PCLAF in human RS4-11 cells assessed as degradation of PCLAF protein by Western blotting analysis; format: cell-based
Target sequence in this assay (Q96SW2 whole entry, one chain of several): as the sequence (Q96SW2 whole entry, looked up, one chain of several) above

[22] = tested on: RS4-11; assay: Induction of apoptosis in human RS4-11 cells assessed as upregulation of Bax level at 10 to 100 nM by Western blotting analysis; format: functional, cell-based; conditions: dose 10-100 nM
[23] = Toxicity in NOD/SCID mouse xenografted with human RS4-11 cells assessed as pathological change in liver at 25 mg/kg,iv qd administration for 5 consecutive days by hematoxylin and eosin staining based microscopic analysis; format: organism-based; conditions: in vivo
[24] = target: T1, Protein cereblon/PCNA-associated factor; assay: PROTAC activity at CRBN/PCLAF in human RS4-11 cells assessed as degradation of PCLAF protein at 100 nM incubated for 12 hrs in presence of MG132 by Western blotting analysis; format: cell-based
[25] = target: T1, Protein cereblon/PCNA-associated factor; assay: PROTAC activity at CRBN/PCLAF in human RS4-11 cells assessed as degradation of PCLAF protein at 100 nM incubated for 12 hrs by Western blotting analysis; format: cell-based
[26] = tested on: RS4-11; assay: Antiproliferative activity against human RS4-11 cells assessed as cell growth inhibition incubated for 48 hrs by CCK8 colorimetric assay; format: functional, cell-based; conditions: RS4-11, 48 h
[27] = target: T3, PCNA-associated factor (Homo sapiens) (UniProt Q15004); assay: Binding affinity to PCLAF in human RS4-11 cells assessed as thermal stability at 100 uM incubated for 60 mins by CETSA assay; format: cell-based
T3 sequence (whole entry): T2 sequence (Q15004 whole entry)

[28] = Toxicity in NOD/SCID mouse xenografted with human RS4-11 cells assessed as pathological change in heart at 25 mg/kg,iv qd administration for 5 consecutive days by hematoxylin and eosin staining based microscopic analysis; format: organism-based; conditions: in vivo
[29] = tested on: RS4-11; assay: Induction of apoptosis in human RS4-11 cells assessed as increase in late apoptosis at 10 to 200 nM incubated for 48 hrs Annexin V-FITC/PI staining based flow cytometry analysis; format: functional, cell-based; conditions: dose 10-200 nM
[30] = target: T1, Protein cereblon/PCNA-associated factor; assay: PROTAC activity at CRBN/PCLAF in human RS4-11 cells assessed as downregulation of Rb phosphorylation at 10 to 100 nM by Western blotting analysis; format: cell-based; conditions: dose 10-100 nM
[31] = tested on: RS4-11; assay: Antitumor activity against human RS4-11 cells xenografted in NOD/SCID mouse assessed as tumor growth inhibition at 1 mg/kg,iv administration for 5 consecutive days; format: functional, organism-based
[32] = tested on: RS4-11; assay: Induction of apoptosis in human RS4-11 cells incubated for 48 hrs Annexin V-FITC/PI staining based flow cytometry analysis; format: functional, cell-based
[33] = tested on: RS4-11; assay: Antitumor activity against human RS4-11 cells xenografted in NOD/SCID mouse assessed as tumor growth inhibition at 5 mg/kg,iv administration for 5 consecutive days; format: functional, organism-based
[34] = Toxicity in NOD/SCID mouse xenografted with human RS4-11 cells assessed as adverse effect at 5 mg/kg,iv qd administration for 5 consecutive days; format: organism-based; conditions: in vivo
[35] = target: T1, Protein cereblon/PCNA-associated factor; assay: PROTAC activity at CRBN/PCLAF in human RS4-11 cells assessed as degradation of PCLAF protein at 40 nM incubated for 40 mins by DARTS analysis; format: cell-based
[36] = target: T1, Protein cereblon/PCNA-associated factor; assay: PROTAC activity at CRBN/PCLAF in human RS4-11 cells assessed as degradation of PCLAF protein at 10 to 100 nM by Western blotting analysis; format: cell-based; conditions: dose 10-100 nM
[37] = tested on: RS4-11; assay: Induction of apoptosis in human RS4-11 cells assessed as increase in early apoptosis at 10 to 200 nM incubated for 48 hrs Annexin V-FITC/PI staining based flow cytometry analysis; format: functional, cell-based; conditions: dose 10-200 nM

## C[C@@H]1CCC2[C@@H](C)[C@@H](OCCN(CCO[C@H]3O[C@@H]4O[C@@]5(C)CCC6[C@H](C)CCC([C@H]3C)[C@]64OO5)C(=O)CCCCCCCNc3cccc4c3C(=O)N(C3CCC(=O)NC3=O)C4=O)O[C@@H]3O[C@@]4(C)CCC1[C@@]23OO4 (stereo partly drawn)
[1]
  Activity: inactive
[2]
  Activity: Non-Toxic
[3]
  Activity: Non-Toxic
[4]
  bioavailability: 24%
[5]
  Activity: Non-Toxic
[6]
  Activity: inactive
[7]
  MTD at 5 days: 25 mg/kg
[8]
  Activity: Active
[9]
  IC50: 343 nM
[10]
  Kd: 6100 nM
[11]
  Activity: Non-Toxic
[12]
  Activity: inactive
[13]
  Activity: Non-Toxic
[14]
  Activity: Active
[15]
  Activity: Dose-Dependent Effect
[16]
  IC50: 235 nM
[17]
  Activity: Active
[18]
  Emax: 95%
[19]
  Activity: Dose-Dependent Effect
[20]
  Activity: Active
[21]
  DC50: 54.9 nM
[22]
  Activity: Active
[23]
  Activity: Non-Toxic
[24]
  Activity: inactive
[25]
  Activity: Active
[26]
  IC50: 50.6 nM
[27]
  Activity: Active
[28]
  Activity: Non-Toxic
[29]
  Activity: Active
[30]
  Activity: Active
[31]
  Activity: Active
[32]
  Activity: Dose-Dependent Effect
[33]
  Activity: Active
[34]
  Activity: Non-Toxic
[35]
  Activity: inactive
[36]
  Activity: Active
[37]
  Activity: Active

## C[C@H]1[C@@H](OCCNCCO[C@H]2O[C@@H]3O[C@]4(C)CC[C@H]5[C@H](C)CC[C@@H]([C@H]2C)[C@@]35OO4)O[C@@H]2O[C@]3(C)CC[C@H]4[C@H](C)CC[C@@H]1[C@@]24OO3
[9]
  IC50: > 1000 nM
[10]
  Kd: 183000 nM
[16]
  IC50: > 1000 nM
[26]
  IC50: 641 nM

## C[C@@H]1CCC2[C@@H](C)[C@@H](OCCN(CCO[C@H]3O[C@@H]4O[C@@]5(C)CCC6[C@H](C)CCC([C@H]3C)[C@]64OO5)C(=O)CCCCCNc3cccc4c3C(=O)N(C3CCC(=O)NC3=O)C4=O)O[C@@H]3O[C@@]4(C)CCC1[C@@]23OO4 (stereo partly drawn)
[9]
  IC50: 543 nM
[16]
  IC50: 148 nM
[26]
  IC50: 96.8 nM

## C[C@@H]1CCC2[C@@H](C)[C@@H](OCCN(CCO[C@H]3O[C@@H]4O[C@@]5(C)CCC6[C@H](C)CCC([C@H]3C)[C@]64OO5)C(=O)CCCCCCNc3cccc4c3C(=O)N(C3CCC(=O)NC3=O)C4=O)O[C@@H]3O[C@@]4(C)CCC1[C@@]23OO4 (stereo partly drawn)
[9]
  IC50: 265 nM
[16]
  IC50: 104 nM
[26]
  IC50: 79.4 nM

## C[C@@H]1CCC2[C@@H](C)[C@@H](OCCN(CCO[C@H]3O[C@@H]4O[C@@]5(C)CCC6[C@H](C)CCC([C@H]3C)[C@]64OO5)C(=O)CCCCCCCCNc3cccc4c3C(=O)N(C3CCC(=O)NC3=O)C4=O)O[C@@H]3O[C@@]4(C)CCC1[C@@]23OO4 (stereo partly drawn)
[9]
  IC50: 407 nM
[16]
  IC50: 322 nM
[26]
  IC50: 72.4 nM

## C[C@@H]1CCC2[C@@H](C)[C@@H](OCCN(CCO[C@H]3O[C@@H]4O[C@@]5(C)CCC6[C@H](C)CCC([C@H]3C)[C@]64OO5)C(=O)CCCCNc3cccc4c3C(=O)N(C3CCC(=O)NC3=O)C4=O)O[C@@H]3O[C@@]4(C)CCC1[C@@]23OO4 (stereo partly drawn)
[9]
  IC50: > 1000 nM
[16]
  IC50: > 1000 nM
[26]
  IC50: 243 nM
